From PubChem BioAssay (NCI)
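Five concentrations, 48 hours, 96-well plates. GI50 = concentration required for 50% inhibition of growth. TGI marks complete inhibition of growth.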

Experiments:
Test in all cases: growth of human tumour cells (NCI), 48 h
K-562 leukemia = system: K-562 leukemia
ACHN renal = system: ACHN renal
SW-620 colon = system: SW-620 colon
NCI/ADR-RES ovarian = system: NCI/ADR-RES ovarian
SF-295 CNS = system: SF-295 CNS
PC-3 prostate = system: PC-3 prostate
OVCAR-5 ovarian = system: OVCAR-5 ovarian
A498 renal = system: A498 renal
UACC-62 melanoma = system: UACC-62 melanoma
DU-145 prostate = system: DU-145 prostate
SK-MEL-28 melanoma = system: SK-MEL-28 melanoma
HL-60(TB) leukemia = system: HL-60(TB) leukemia
RPMI-8226 leukemia = system: RPMI-8226 leukemia
MCF7 breast = system: MCF7 breast
CAKI-1 renal = system: CAKI-1 renal
KM12 colon = system: KM12 colon
MDA-MB-435 = system: MDA-MB-435
MDA-MB-231 breast = system: MDA-MB-231 breast
NCI-H460 lung = system: NCI-H460 lung
TK-10 renal = system: TK-10 renal
T-47D breast = system: T-47D breast
MOLT-4 leukemia = system: MOLT-4 leukemia
NCI-H226 lung = system: NCI-H226 lung
NCI-H23 lung = system: NCI-H23 lung
SNB-75 CNS = system: SNB-75 CNS
HCT-116 colon = system: HCT-116 colon
SK-OV-3 ovarian = system: SK-OV-3 ovarian
RXF 393 renal = system: RXF 393 renal
BT-549 breast = system: BT-549 breast
UO-31 renal = system: UO-31 renal
SN12C renal = system: SN12C renal
HS 578T breast = system: HS 578T breast
HT29 colon = system: HT29 colon
COLO 205 colon = system: COLO 205 colon
IGROV1 ovarian = system: IGROV1 ovarian
A549 NSCLC = system: A549 NSCLC
SK-MEL-5 melanoma = system: SK-MEL-5 melanoma
SNB-19 CNS = system: SNB-19 CNS
HCC-2998 colon = system: HCC-2998 colon
MALME-3M melanoma = system: MALME-3M melanoma
OVCAR-8 ovarian = system: OVCAR-8 ovarian
SR leukemia = system: SR leukemia
OVCAR-4 ovarian = system: OVCAR-4 ovarian
NCI-H522 lung = system: NCI-H522 lung
786-0 renal = system: 786-0 renal
M14 melanoma = system: M14 melanoma
SF-268 CNS = system: SF-268 CNS
UACC-257 melanoma = system: UACC-257 melanoma
OVCAR-3 ovarian = system: OVCAR-3 ovarian
CCRF-CEM leukemia = system: CCRF-CEM leukemia
SF-539 CNS = system: SF-539 CNS
HOP-62 NSCLC = system: HOP-62 NSCLC
HCT-15 colon = system: HCT-15 colon

`FC(F)(F)c1ccc(-c2cnc(Cl)nc2NC2CCCCCC2)cc1` was tested, and the GI50 (K-562 leukemia) was 54.1 µM, the TGI (K-562 leukemia) was greater than 100 µM and the GI50 (ACHN renal) was greater than 100 µM. For the same compound, the TGI (ACHN renal) was greater than 100 µM, the GI50 (SW-620 colon) was greater than 100 µM and the TGI (SW-620 colon) was greater than 100 µM. The GI50 (NCI/ADR-RES ovarian) was greater than 100 µM, the TGI (NCI/ADR-RES ovarian) was greater than 100 µM and the GI50 (SF-295 CNS) was 69.7 µM. The TGI (SF-295 CNS) was greater than 100 µM, the GI50 (PC-3 prostate) was 28.7 µM and the TGI (PC-3 prostate) was greater than 100 µM. The GI50 (OVCAR-5 ovarian) was greater than 100 µM, the TGI (OVCAR-5 ovarian) was greater than 100 µM and the GI50 (A498 renal) was greater than 100 µM. For the same compound, the TGI (A498 renal) was greater than 100 µM, the GI50 (UACC-62 melanoma) was greater than 100 µM and the TGI (UACC-62 melanoma) was greater than 100 µM. The GI50 (DU-145 prostate) was greater than 100 µM, the TGI (DU-145 prostate) was greater than 100 µM and the GI50 (SK-MEL-28 melanoma) was greater than 100 µM. For the same compound, the TGI (SK-MEL-28 melanoma) was greater than 100 µM, the GI50 (HL-60(TB) leukemia) was 24.9 µM and the TGI (HL-60(TB) leukemia) was greater than 100 µM. The GI50 (RPMI-8226 leukemia) was 8.03 µM, the TGI (RPMI-8226 leukemia) was greater than 100 µM and the GI50 (MCF7 breast) was 31.2 µM. It also gave a TGI (MCF7 breast) greater than 100 µM, a GI50 (CAKI-1 renal) of 57.4 µM and a TGI (CAKI-1 renal) greater than 100 µM. The GI50 (KM12 colon) was 97.1 µM, the TGI (KM12 colon) was greater than 100 µM and the GI50 (MDA-MB-435) was greater than 100 µM. It also gave a TGI (MDA-MB-435) greater than 100 µM, a GI50 (MDA-MB-231 breast) of 36.4 µM and a TGI (MDA-MB-231 breast) greater than 100 µM. For the same compound, the GI50 (NCI-H460 lung) was 73.1 µM, the TGI (NCI-H460 lung) was greater than 100 µM and the GI50 (TK-10 renal) was greater than 100 µM. It also gave a TGI (TK-10 renal) greater than 100 µM, a GI50 (T-47D breast) of 19.1 µM and a TGI (T-47D breast) greater than 100 µM. It also gave a GI50 (MOLT-4 leukemia) of 32.7 µM, a TGI (MOLT-4 leukemia) greater than 100 µM and a GI50 (NCI-H226 lung) greater than 100 µM. For the same compound, the TGI (NCI-H226 lung) was greater than 100 µM, the GI50 (NCI-H23 lung) was 61.1 µM and the TGI (NCI-H23 lung) was greater than 100 µM. It also gave a GI50 (SNB-75 CNS) of 80.6 µM, a TGI (SNB-75 CNS) greater than 100 µM and a GI50 (HCT-116 colon) of 35.5 µM. The TGI (HCT-116 colon) was greater than 100 µM, the GI50 (SK-OV-3 ovarian) was greater than 100 µM and the TGI (SK-OV-3 ovarian) was greater than 100 µM. The GI50 (RXF 393 renal) was greater than 100 µM, the TGI (RXF 393 renal) was greater than 100 µM and the GI50 (BT-549 breast) was greater than 100 µM. The TGI (BT-549 breast) was greater than 100 µM, the GI50 (UO-31 renal) was greater than 100 µM and the TGI (UO-31 renal) was greater than 100 µM. It also gave a GI50 (SN12C renal) greater than 100 µM, a TGI (SN12C renal) greater than 100 µM and a GI50 (HS 578T breast) greater than 100 µM. For the same compound, the TGI (HS 578T breast) was greater than 100 µM, the GI50 (HT29 colon) was 71.1 µM and the TGI (HT29 colon) was greater than 100 µM. The GI50 (COLO 205 colon) was 95.5 µM, the TGI (COLO 205 colon) was greater than 100 µM and the GI50 (IGROV1 ovarian) was greater than 100 µM. For the same compound, the TGI (IGROV1 ovarian) was greater than 100 µM, the GI50 (A549 NSCLC) was greater than 100 µM and the TGI (A549 NSCLC) was greater than 100 µM. For the same compound, the GI50 (SK-MEL-5 melanoma) was 62.8 µM, the TGI (SK-MEL-5 melanoma) was greater than 100 µM and the GI50 (SNB-19 CNS) was greater than 100 µM. It also gave a TGI (SNB-19 CNS) greater than 100 µM, a GI50 (HCC-2998 colon) greater than 100 µM and a TGI (HCC-2998 colon) greater than 100 µM. It also gave a GI50 (MALME-3M melanoma) greater than 100 µM, a TGI (MALME-3M melanoma) greater than 100 µM and a GI50 (OVCAR-8 ovarian) greater than 100 µM. The TGI (OVCAR-8 ovarian) was greater than 100 µM, the GI50 (SR leukemia) was 38.9 µM and the TGI (SR leukemia) was greater than 100 µM. It also gave a GI50 (OVCAR-4 ovarian) of 38.7 µM, a TGI (OVCAR-4 ovarian) greater than 100 µM and a GI50 (NCI-H522 lung) of 45.4 µM. It also gave a TGI (NCI-H522 lung) greater than 100 µM, a GI50 (786-0 renal) greater than 100 µM and a TGI (786-0 renal) greater than 100 µM. It also gave a GI50 (M14 melanoma) greater than 100 µM, a TGI (M14 melanoma) greater than 100 µM and a GI50 (SF-268 CNS) greater than 100 µM. For the same compound, the TGI (SF-268 CNS) was greater than 100 µM, the GI50 (UACC-257 melanoma) was greater than 100 µM and the TGI (UACC-257 melanoma) was greater than 100 µM. For the same compound, the GI50 (OVCAR-3 ovarian) was greater than 100 µM, the TGI (OVCAR-3 ovarian) was greater than 100 µM and the GI50 (CCRF-CEM leukemia) was 27.9 µM. The TGI (CCRF-CEM leukemia) was greater than 100 µM, the GI50 (SF-539 CNS) was greater than 100 µM and the TGI (SF-539 CNS) was greater than 100 µM. The GI50 (HOP-62 NSCLC) was greater than 100 µM, the TGI (HOP-62 NSCLC) was greater than 100 µM and the GI50 (HCT-15 colon) was greater than 100 µM. It also gave a TGI (HCT-15 colon) greater than 100 µM.
